In PubChem BioAssay AID2060363 (Molecular Pharmacology Branch, DTP, NCI, 2025):

Test system: 156681-154-R-J1-PDC tumor spheroids, viability % test/control
Experiment: Anticancer human tumor 156681-154-R-J1-PDC patient-derived melanoma cell line growth inhibition [TAK]
Settings: spheroids with HUVEC and MSC; for IC50: curve of first compound; for viability, T/C: stronger effect = lower value
Outline: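 Tumor cells were grown as spheroids with HUVEC and hMSC (60:25:15) and treated with targeted agents combined with TAK-243 or ipatasertib. Drugs were tested in half-log steps down from near the clinical Cmax, or from 10 microM where Cmax was unknown.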
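Note: spheroids exposed to compounds for 7 days before the endpoint.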

Compound `CC(=O)Nc1cccc(-n2c(=O)n(C3CC3)c(=O)c3c(Nc4ccc(I)cc4F)n(C)c(=O)c(C)c32)c1` + CC(C)NCC(C(=O)N1CCN(c2ncnc3c2C(C)CC3O)CC1)c1ccc(Cl)cc1 has an IC50 (second compound 0.3 µM) of 3.28 nM, an IC50 (second compound 0.949 µM) of 3.04 nM and an IC50 (second compound 3 µM) of 1.39 nM. The IC50 (second compound 9.49 µM) was < 0.0949 nM, the IC50 (second compound 30 µM) was < 0.0949 nM and the viability, T/C (second compound 0.3 µM, first compound 94.9 pM) was 92%. For the same compound, the viability, T/C (second compound 0.3 µM, first compound 0.0003 µM) was 105%, the viability, T/C (second compound 0.3 µM, first compound 0.000949 µM) was 95.2% and the viability, T/C (second compound 0.3 µM, first compound 0.003 µM) was 53.3%. The viability, T/C (second compound 0.3 µM, first compound 0.00949 µM) was 11%, the viability, T/C (second compound 0.3 µM, first compound 0.03 µM) was 7.15% and the viability, T/C (second compound 0.949 µM, first compound 94.9 pM) was 88.9%. It also gave a viability, T/C (second compound 0.949 µM, first compound 0.0003 µM) of 89.2%, a viability, T/C (second compound 0.949 µM, first compound 0.000949 µM) of 84.2% and a viability, T/C (second compound 0.949 µM, first compound 0.003 µM) of 50.8%. For the same compound, the viability, T/C (second compound 0.949 µM, first compound 0.00949 µM) was 8.92%, the viability, T/C (second compound 0.949 µM, first compound 0.03 µM) was 6.03% and the viability, T/C (second compound 3 µM, first compound 94.9 pM) was 72.3%. It also gave a viability, T/C (second compound 3 µM, first compound 0.0003 µM) of 69.3%, a viability, T/C (second compound 3 µM, first compound 0.000949 µM) of 63.6% and a viability, T/C (second compound 3 µM, first compound 0.003 µM) of 22.9%. It also gave a viability, T/C (second compound 3 µM, first compound 0.00949 µM) of 7.24%, a viability, T/C (second compound 3 µM, first compound 0.03 µM) of 2.71% and a viability, T/C (second compound 9.49 µM, first compound 94.9 pM) of 43.4%. For the same compound, the viability, T/C (second compound 9.49 µM, first compound 0.0003 µM) was 43.6%, the viability, T/C (second compound 9.49 µM, first compound 0.000949 µM) was 31.1% and the viability, T/C (second compound 9.49 µM, first compound 0.003 µM) was 13%. It also gave a viability, T/C (second compound 9.49 µM, first compound 0.00949 µM) of 3.14%, a viability, T/C (second compound 9.49 µM, first compound 0.03 µM) of 0.73% and a viability, T/C (second compound 30 µM, first compound 94.9 pM) of 17.9%. The viability, T/C (second compound 30 µM, first compound 0.0003 µM) was 18.9%, the viability, T/C (second compound 30 µM, first compound 0.000949 µM) was 11.8% and the viability, T/C (second compound 30 µM, first compound 0.003 µM) was 4.9%. The viability, T/C (second compound 30 µM, first compound 0.00949 µM) was 1.63% and the viability, T/C (second compound 30 µM, first compound 0.03 µM) was 0.28%.
`CC(C)CC(NC(=O)CNC(=O)c1cc(Cl)ccc1Cl)B1OC(=O)CC(CC(=O)O)(C(=O)O)O1` (stereo not given) + CC(C)NCC(C(=O)N1CCN(c2ncnc3c2C(C)CC3O)CC1)c1ccc(Cl)cc1 gave an IC50 (second compound 0.3 µM) of 18 nM, an IC50 (second compound 0.949 µM) of 17.1 nM and an IC50 (second compound 3 µM) of 12.2 nM. The IC50 (second compound 9.49 µM) was < 0.316 nM, the IC50 (second compound 30 µM) was < 0.316 nM and the viability, T/C (second compound 0.3 µM, first compound 0.000316 µM) was 96.8%. The viability, T/C (second compound 0.3 µM, first compound 0.001 µM) was 86.9%, the viability, T/C (second compound 0.3 µM, first compound 0.00316 µM) was 94.9% and the viability, T/C (second compound 0.3 µM, first compound 0.01 µM) was 88%. It also gave a viability, T/C (second compound 0.3 µM, first compound 0.0316 µM) of 13.8%, a viability, T/C (second compound 0.3 µM, first compound 0.1 µM) of 0.27% and a viability, T/C (second compound 0.949 µM, first compound 0.000316 µM) of 88.7%. For the same compound, the viability, T/C (second compound 0.949 µM, first compound 0.001 µM) was 87.7%, the viability, T/C (second compound 0.949 µM, first compound 0.00316 µM) was 90.2% and the viability, T/C (second compound 0.949 µM, first compound 0.01 µM) was 82.1%. It also gave a viability, T/C (second compound 0.949 µM, first compound 0.0316 µM) of 13.2%, a viability, T/C (second compound 0.949 µM, first compound 0.1 µM) of 0.34% and a viability, T/C (second compound 3 µM, first compound 0.000316 µM) of 79.4%. For the same compound, the viability, T/C (second compound 3 µM, first compound 0.001 µM) was 76.9%, the viability, T/C (second compound 3 µM, first compound 0.00316 µM) was 78.9% and the viability, T/C (second compound 3 µM, first compound 0.01 µM) was 58.8%. It also gave a viability, T/C (second compound 3 µM, first compound 0.0316 µM) of 8.09%, a viability, T/C (second compound 3 µM, first compound 0.1 µM) of 0.23% and a viability, T/C (second compound 9.49 µM, first compound 0.000316 µM) of 43.3%. For the same compound, the viability, T/C (second compound 9.49 µM, first compound 0.001 µM) was 41.5%, the viability, T/C (second compound 9.49 µM, first compound 0.00316 µM) was 42% and the viability, T/C (second compound 9.49 µM, first compound 0.01 µM) was 40.9%. For the same compound, the viability, T/C (second compound 9.49 µM, first compound 0.0316 µM) was 4.19%, the viability, T/C (second compound 9.49 µM, first compound 0.1 µM) was 0.25% and the viability, T/C (second compound 30 µM, first compound 0.000316 µM) was 17.5%. It also gave a viability, T/C (second compound 30 µM, first compound 0.001 µM) of 20.3%, a viability, T/C (second compound 30 µM, first compound 0.00316 µM) of 18.5% and a viability, T/C (second compound 30 µM, first compound 0.01 µM) of 15.4%. It also gave a viability, T/C (second compound 30 µM, first compound 0.0316 µM) of 2.17% and a viability, T/C (second compound 30 µM, first compound 0.1 µM) of 0.28%.
In the case of `CCCS(=O)(=O)Nc1ccc(F)c(C(=O)c2c[nH]c3ncc(-c4ccc(Cl)cc4)cc23)c1F` + CC(C)NCC(C(=O)N1CCN(c2ncnc3c2C(C)CC3O)CC1)c1ccc(Cl)cc1, the IC50 (second compound 0.3 µM) is reported as 8190 nM, the IC50 (second compound 0.949 µM) is reported as 7510 nM and the IC50 (second compound 3 µM) is reported as 3820 nM. The IC50 (second compound 9.49 µM) was < 316 nM, the IC50 (second compound 30 µM) was < 316 nM and the viability, T/C (second compound 0.3 µM, first compound 0.316 µM) was 104%. The viability, T/C (second compound 0.3 µM, first compound 1 µM) was 111%, the viability, T/C (second compound 0.3 µM, first compound 3.16 µM) was 103% and the viability, T/C (second compound 0.3 µM, first compound 10 µM) was 24.5%. The viability, T/C (second compound 0.3 µM, first compound 31.6 µM) was 0.49%, the viability, T/C (second compound 0.3 µM, first compound 100 µM) was 91.8% and the viability, T/C (second compound 0.949 µM, first compound 0.316 µM) was 89.5%. It also gave a viability, T/C (second compound 0.949 µM, first compound 1 µM) of 101%, a viability, T/C (second compound 0.949 µM, first compound 3.16 µM) of 85.2% and a viability, T/C (second compound 0.949 µM, first compound 10 µM) of 15.7%. For the same compound, the viability, T/C (second compound 0.949 µM, first compound 31.6 µM) was 16.6%, the viability, T/C (second compound 0.949 µM, first compound 100 µM) was 82.9% and the viability, T/C (second compound 3 µM, first compound 0.316 µM) was 83%. The viability, T/C (second compound 3 µM, first compound 1 µM) was 72.8%, the viability, T/C (second compound 3 µM, first compound 3.16 µM) was 58.8% and the viability, T/C (second compound 3 µM, first compound 10 µM) was 6.57%. It also gave a viability, T/C (second compound 3 µM, first compound 31.6 µM) of 3.37%, a viability, T/C (second compound 3 µM, first compound 100 µM) of 3.64% and a viability, T/C (second compound 9.49 µM, first compound 0.316 µM) of 41.6%. For the same compound, the viability, T/C (second compound 9.49 µM, first compound 1 µM) was 42.8%, the viability, T/C (second compound 9.49 µM, first compound 3.16 µM) was 36.5% and the viability, T/C (second compound 9.49 µM, first compound 10 µM) was 1.52%. For the same compound, the viability, T/C (second compound 9.49 µM, first compound 31.6 µM) was 0.38%, the viability, T/C (second compound 9.49 µM, first compound 100 µM) was 0.73% and the viability, T/C (second compound 30 µM, first compound 0.316 µM) was 19.2%. The viability, T/C (second compound 30 µM, first compound 1 µM) was 19.2%, the viability, T/C (second compound 30 µM, first compound 3.16 µM) was 4.74% and the viability, T/C (second compound 30 µM, first compound 10 µM) was 0.42%. It also gave a viability, T/C (second compound 30 µM, first compound 31.6 µM) of 0.39% and a viability, T/C (second compound 30 µM, first compound 100 µM) of 0.5%.
